Laboratory results published in patent US20250018048A1, “FLUCONAZOLE-COX INHIBITOR HYBRIDS: A DUAL-ACTING CLASS OF ANTIFUNGAL AZOLES” (Ramot at Tel-Aviv University Ltd., priority 2022, published 2025).
In brackets after ≈: the same amount, converted by molar mass. Entries after “also recorded” stand apart in the source; their conditions may differ.

Columns and labels:
Type in all cases: cell-based
[1] = test system: C. albicans 742 (erg11ΔΔ/erg3ΔΔ mutant C. albicans strain); assay: MIC80 broth double-dilution assay, strain lacking CYP51; conditions: 24 h; for MIC80: Candida albicans, read-out: MIC80 against C. albicans 742; for MIC80 against C. albicans 742: YPAD medium, 30° C., erg11ΔΔ/erg3ΔΔ mutant lacking CYP51
In short: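 Double-knockout C. albicans and parent SN152 grown in YPAD at 30 °C with serial double dilutions from 64 to 0.003 μg/mL; OD600 read after 24 h (growth followed over 48 h). MIC80 taken as >80% OD600 reduction versus no-drug wells; triplicate, two independent experiments.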

C. albicans P-87 = assay: MIC80 broth double-dilution assay; conditions: YPAD medium, 30° C., 24 h; for MIC80: Candida albicans, P87, read-out: MIC80 against C. albicans P-87
In short: (§1)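 CLSI M27-A3 (modified) microdilution, YPAD, 0.003–64 μg/mL two-fold series; inoculum 1×10^−3 OD600 then 1:100. 24 h, 30° C. Endpoint: OD600 >80% below no-drug control.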

C. dubliniensis T-99 = assay: MIC80 broth double-dilution assay; conditions: YPAD medium, 30° C., 24 h; for MIC80: Candida dubliniensis, T99, read-out: MIC80 against C. dubliniensis T-99
In short: as §1

C. albicans SN152 = assay: Disk diffusion assay for antifungal tolerance; conditions: casitone agar, disk with 25 μg, 30° C.
Method: (§2) To investigate how tolerance is affected by the azole-COX inhibitor hybrids, a comparison of hybrids 1 and 5 to FLC and VOR in a disk diffusion assay was performed. Tolerance was evaluated by comparing the zone of inhibition after 24 h to that after 48 h. The assay was carried out on three representative strains: C. albicans, C. parapsilosis, and C. tropicalis (FIG. 7).
(§3) As shown, compared to FLC and VOR, azole-COX inhibitor hybrids 1 and 5 display reduced antifungal tolerance. Disk diffusion assays were carried out on casitone agar plates containing disks loaded with 25 μg of the tested hybrids. Plates were imaged after 24 h to evaluate antifungal activity (left half of the plate image) and after 48 h to evaluate tolerance (right half of the plate image).
(§4) Disk diffusion assay: Antifungal activities of select hybrids against C. albicans SN152, C. parapsilosis ATCC 22019, and C. tropicalis 660 were confirmed by the disk diffusion assay. Strains were streaked from frozen culture onto YPAD agar and incubated for 24 h at 30° C. Two or three colonies were placed into 1 mL of PBS solution, and OD600 was determined with a TECAN Infinite. OD600 was adjusted to 0.02 for C. albicans SN152 and to 0.025 for C. parapsilosis ATCC 22019 and C. tropicalis 660 by dilution with PBS. Aliquots of 200 μL of the diluted cultures of each strain were plated onto 15-mL casitone agar plates and spread using sterile beads (3 mm, Fisher Scientific). After the plates dried, a single disk (6-mm diameter, Becton Dickinson) with 25 μg of the hybrid being tested was placed in the center of each plate. Plates were then incubated at 30° C. and photographed under the same imaging conditions after 24 h and 48 h. FLC and VOR were used as control drugs.

[2] = test system: C. parapsilosis ATCC 22019; assay: Disk diffusion assay for antifungal tolerance; conditions: casitone agar, disk with 25 μg, 30° C.
Method: as §2, §3, §4

C. tropicalis 660 = assay: Disk diffusion assay for antifungal tolerance; conditions: casitone agar, disk with 25 μg, 30° C.
Method: as §2, §3, §4

[3] = test system: erg11ΔΔ/erg3ΔΔ mutant C. albicans; assay: Growth curve analysis of C. albicans lacking CYP51; conditions: YPAD, 30° C., 48 h
Method: The clinically used FLC and VOR act primarily by preventing ergosterol biosynthesis via inhibition of CYP51. Analysis was done to determine whether fungal growth inhibition by the hybrids required the presence of the ERG11 gene that encodes for CYP51. The antifungal activities of hybrids 1 and 5 and of FLC and VOR were determined against an erg11ΔΔ/erg3ΔΔ mutant C. albicans strain and against C. albicans SN152 from which this double knockout strain was derived (Table S2). […] Yeast growth was followed at OD600 over 48 h in 96-well plates containing serial double dilutions of the tested hybrids.
Cells of erg11ΔΔ/erg3ΔΔ mutant C. albicans were grown in YPAD media at 30° C. and treated with different concentrations of the tested hybrids. Growth was measured by recording the OD600 values every 40 minutes over a 48-h course on an automated plate reader.
Growth curve analyses: Growth curves were determined using the double-dilution method in 96-well plates. Starter cultures were streaked from glycerol stock onto YPAD agar plates and grown for 24 h at 30° C. Colonies were suspended in 1 mL PBS and diluted to 1×10^−3 OD600 and then diluted 1:100 into fresh medium. Hybrids dissolved in DMSO were added to YPAD broth (32 μL stock solution in 1218 μL of YPAD broth), and serial double dilutions of hybrids in YPAD were prepared in flat-bottomed 96-well microplates (Corning) to enable testing of concentrations ranging from 64 μg/mL to 1 μg/mL. Control wells with yeast cells but no drug (100% growth) and blank wells containing only YPAD (0% growth) were prepared. An equal volume (100 μL) of yeast suspensions in YPAD broth was added to each well with the exceptions of the blank wells. Growth was determined at 30° C. by measuring the OD600 using a plate reader (Infinite M200 PRO, Tecan) every 40 minutes over 48 h. Each concentration was tested in triplicate, and results were confirmed by two independent sets of experiments. FLC and VOR were used as control drugs.

[4] = entire range of concentrations (64 to 1 μg/mL)

Compound | MIC80 [1] [µg/mL] | MIC80 against C. albicans 742 [1] | MIC80 (C. albicans P-87) [µg/mL] | MIC80 (C. dubliniensis T-99) [µg/mL] | Tolerance: zone of inhibition after 48 h compared with 24 h (C. albicans SN152) | Tolerance: zone of inhibition after 48 h compared with 24 h [2] | Tolerance: zone of inhibition after 48 h compared with 24 h (C. tropicalis 660) | Effect on growth (OD600) of the double knockout mutant ([3]; at 64 μg/mL, the highest concentration tested) | MIC80 against C. albicans P-87 (C. albicans P-87) [µg/mL] | MIC80 against C. dubliniensis T-99 (C. dubliniensis T-99) [µg/mL] | Effect on growth (OD600) of the double knockout mutant [3, 4]
C[C@@H](c1ncncc1F)[C@](O)(Cn1cncn1)c1ccc(F)cc1F [VOR, voriconazole, reference compound] | > 64 | inactive | 0.007 (≈ 0.02 µM) | 0.03 (≈ 0.0859 µM) | covered by drug tolerant colonies | covered by drug tolerant colonies | the drug tolerant subpopulation was smaller | Modest reduction in growth |  |  | 
CC(C)Cc1ccc([C@H](C)C(=O)NC[C@](O)(Cn2cncn2)c2ccc(F)cc2F)cc1 [Hybrid 1] |  | 64 µg/mL (≈ 145 µM) |  |  | reduced tolerance | reduced tolerance | reduced tolerance |  | 0.003 (≈ 0.00678 µM) | 0.06 (≈ 0.136 µM) | clear dose-dependent reduction in growth
C[C@H](C(=O)NC[C@](O)(Cn1cncn1)c1ccc(F)cc1F)c1ccc(-c2ccccc2)c(F)c1 [Hybrid 5] |  | 64 µg/mL (≈ 133 µM) |  |  | reduced tolerance | reduced tolerance; also recorded: markedly lower than that to VOR | reduced tolerance |  | 0.015 (≈ 0.0312 µM) | 0.5 (≈ 1.04 µM) | clear dose-dependent reduction in growth
OC(Cn1cncn1)(Cn1cncn1)c1ccc(F)cc1F [FLC, fluconazole] | > 64 | inactive | 1 (≈ 3.27 µM) | 0.25 (≈ 0.816 µM) | covered by drug tolerant colonies | covered by drug tolerant colonies | the drug tolerant subpopulation was smaller |  |  |  | no significant effect on the growth
